Assay results from PubChem BioAssay AID248 (DTP/NCI, 2004).
Several values for one entry are separate records, joined by “and”; a condition that tells them apart may be missing. Identical values can stand only once. Toxic doses and inconclusive results are not listed. Rule as the data show it: active = T/C of 150% or more; inactive = T/C below 125%.

System: L1210 leukemia ip in BDF1 mice, survival T/C
Test: NCI In Vivo Anticancer Drug Screen. Data for tumor model L1210 Leukemia (intraperitoneal) in B6D2F1 (BDF1) mice
Details: endpoint: mean survival time, higher = longer survival
Method in brief: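 In this screen, tumor-bearing mice given compound are compared to those given vehicle, and their survival values are reported as a treated-to-control quotient.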

[1] = dose: 100.0 mg/kg/injection, schedule: Q01DX001 (ip), vehicle: saline
[2] = dose: 200.0 mg/kg/injection, schedule: Q01DX001 (ip), vehicle: saline
[3] = dose: 400.0 mg/kg/injection, schedule: Q01DX001 (ip), vehicle: saline
[4] = dose: 100.0 mg/kg/injection, schedule: Q01DX001 (ip), vehicle: saline with Tween-80
[5] = dose: 200.0 mg/kg/injection, schedule: Q01DX001 (ip), vehicle: saline with Tween-80
[6] = dose: 100.0 mg/kg/injection, schedule: Q01DX001 (ip), vehicle: carboxymethylcellulose (CMC)
[7] = dose: 200.0 mg/kg/injection, schedule: Q01DX001 (ip), vehicle: carboxymethylcellulose (CMC)
[8] = dose: 400.0 mg/kg/injection, schedule: Q01DX001 (ip), vehicle: carboxymethylcellulose (CMC)
[9] = dose: 100.0 mg/kg/injection, schedule: Q01DX009 (ip), vehicle: Klucel (hydroxypropylcellulose) (HPC)
[10] = dose: 200.0 mg/kg/injection, schedule: Q01DX009 (ip), vehicle: Klucel (hydroxypropylcellulose) (HPC)
[11] = dose: 400.0 mg/kg/injection, schedule: Q01DX009 (ip), vehicle: Klucel (hydroxypropylcellulose) (HPC)
[12] = dose: 100.0 mg/kg/injection, schedule: Q04DX003 (ip), vehicle: saline with Tween-80
[13] = dose: 200.0 mg/kg/injection, schedule: Q04DX003 (ip), vehicle: saline with Tween-80
[14] = dose: 400.0 mg/kg/injection, schedule: Q04DX003 (ip), vehicle: saline with Tween-80
[15] = dose: 100.0 mg/kg/injection, schedule: Q01DX009 (ip), vehicle: saline with Tween-80
[16] = dose: 200.0 mg/kg/injection, schedule: Q01DX009 (ip), vehicle: saline with Tween-80
[17] = dose: 400.0 mg/kg/injection, schedule: Q01DX009 (ip), vehicle: saline with Tween-80
[18] = dose: 75.0 mg/kg/injection, schedule: Q01DX001 (ip), vehicle: saline
[19] = dose: 100.0 mg/kg/injection, schedule: Q01DX001 (ip), vehicle: Klucel (hydroxypropylcellulose) (HPC)
[20] = dose: 200.0 mg/kg/injection, schedule: Q01DX001 (ip), vehicle: Klucel (hydroxypropylcellulose) (HPC)
[21] = dose: 400.0 mg/kg/injection, schedule: Q01DX001 (ip), vehicle: Klucel (hydroxypropylcellulose) (HPC)

Measured: T/C

O=S(=O)(Cl)c1ccc(Oc2ccc(S(=O)(=O)Cl)cc2)cc1
inactive: dose: 50.0 mg/kg/injection, schedule: Q01DX001 (ip), vehicle: saline 105 % of control | [1] 94 % of control | [2] 105 % of control | [3] 90 % of control

CC1(C)CCc2c(O)c(N=O)c3ccccc3c2O1
inactive: [4] 103 % of control | [5] 95 % of control | dose: 400.0 mg/kg/injection, schedule: Q01DX001 (ip), vehicle: saline with Tween-80 95 % of control

CC(C)=CCCBr
inactive: dose: 50.0 mg/kg/injection, schedule: Q01DX009 (sc), vehicle: olive oil, sesame oil, peanut oil 108 % of control | dose: 100.0 mg/kg/injection, schedule: Q01DX009 (sc), vehicle: olive oil, sesame oil, peanut oil 102 % of control | dose: 200.0 mg/kg/injection, schedule: Q01DX009 (sc), vehicle: olive oil, sesame oil, peanut oil 108 % of control

CCC[CH2][Sn](=[S])[CH2]CCC
inactive: dose: 0.69 mg/kg/injection, schedule: Q01DX009 (ip), vehicle: other 98 % of control | dose: 0.78 mg/kg/injection, schedule: Q01DX009 (ip), vehicle: saline 93 % of control | dose: 1.04 mg/kg/injection, schedule: Q01DX009 (ip), vehicle: other 95 % of control | dose: 1.56 mg/kg/injection, schedule: Q01DX009 (ip), vehicle: other 96 % of control | dose: 1.56 mg/kg/injection, schedule: Q01DX009 (ip), vehicle: saline 112 % of control | dose: 2.34 mg/kg/injection, schedule: Q01DX009 (ip), vehicle: other 107 % of control | dose: 3.12 mg/kg/injection, schedule: Q01DX009 (ip), vehicle: saline 114 % of control | dose: 3.13 mg/kg/injection, schedule: Q01DX009 (ip), vehicle: other 105 % of control | dose: 6.25 mg/kg/injection, schedule: Q01DX009 (ip), vehicle: saline 122 % of control | dose: 12.5 mg/kg/injection, schedule: Q01DX009 (ip), vehicle: other 88 % of control | dose: 12.5 mg/kg/injection, schedule: Q04DX003 (ip), vehicle: other 98 % of control | [6] 115 % of control | [7] 102 % of control | [8] 86 % of control

CCC1(CCCCCCC(=O)CC(C)=O)OCCO1
inactive: [9] 105 % of control | [10] 104 % of control | [11] 91 % of control

CC(C)(OC(=O)C(NC=O)C(C)(C)S)OC(=O)C(NC=O)C(C)(C)S (centres undefined)
inactive: [12] 98 % of control | [13] 95 % of control | [14] 100 % of control

CC(=O)Nc1ccc(/C=C/C(=O)c2ccc(Cl)cc2)cc1
inactive: [15] 102 % of control | [12] 100 % of control | [16] 89 % of control | [13] 87 % of control | [17] 91 % of control | [14] 90 % of control

COC1(OC)C2C(Cl)=C(Cl)C1(Cl)C(Br)C2c1ccccc1 (centres undefined)
inactive: [6] 97 % of control | [7] 92 % of control | [8] 103 % of control

O=S(=O)(O)c1ccc2c(ccc3ccccc32)c1
inactive: [18] 96 % of control

c1cc(-c2sc(-c3ccncc3)c(-c3ccncc3)c2-c2ccncc2)ccn1
inactive: [19] 107 % of control | [20] 98 % of control | [21] 98 % of control

CCNC(=O)c1csnn1
inactive: dose: 75.0 mg/kg/injection, schedule: Q01DX001 (ip), vehicle: other 98 % of control | dose: 150.0 mg/kg/injection, schedule: Q01DX001 (ip), vehicle: other 101 % of control | dose: 300.0 mg/kg/injection, schedule: Q01DX001 (ip), vehicle: other 104 % of control

COc1ccc(Cl)cc1NC(=O)/C=C/c1ccccc1
inactive: [4] 95 % of control | [15] 89 % of control | dose: 100.0 mg/kg/injection, schedule: Q04DX002 (ip), vehicle: saline with Tween-80 98 % of control and 90 % of control | [5] 92 % of control | [16] 95 % of control and 89 % of control | dose: 200.0 mg/kg/injection, schedule: Q04DX002 (ip), vehicle: saline with Tween-80 96 % of control and 91 % of control | [17] 92 % of control | dose: 400.0 mg/kg/injection, schedule: Q04DX002 (ip), vehicle: saline with Tween-80 94 % of control and 86 % of control

O=C(O)C(O)C(O)C(O)C(O)C(O)CO.[Fe] (centres undefined)
inactive: [18] 95 % of control

CCOC(=O)c1[nH]c(C)c(C(=O)OCc2ccccc2)c1CCC(=O)O
inactive: dose: 75.0 mg/kg/injection, schedule: Q01DX001 (ip), vehicle: saline with Tween-80 92 % of control | dose: 150.0 mg/kg/injection, schedule: Q01DX001 (ip), vehicle: saline with Tween-80 97 % of control | dose: 300.0 mg/kg/injection, schedule: Q01DX001 (ip), vehicle: saline with Tween-80 100 % of control

CNS(=O)(=O)c1ccc(Cl)cc1
inactive: [1] 95 % of control | [15] 118 % of control | dose: 100.0 mg/kg/injection, schedule: Q01DX009 (ip), vehicle: saline 98 % of control | [2] 101 % of control | [16] 94 % of control | [3] 96 % of control

COC(=O)C1C(=O)C(C(=O)OC)C2C(C(=O)OC)C(=O)C(C(=O)OC)C12 (centres undefined)
inactive: [19] 104 % of control | [9] 93 % of control | dose: 100.0 mg/kg/injection, schedule: Q04DX003 (ip), vehicle: Klucel (hydroxypropylcellulose) (HPC) 97 % of control | [20] 101 % of control | [10] 95 % of control | dose: 200.0 mg/kg/injection, schedule: Q04DX003 (ip), vehicle: Klucel (hydroxypropylcellulose) (HPC) 96 % of control | [21] 103 % of control | [11] 98 % of control | dose: 400.0 mg/kg/injection, schedule: Q04DX003 (ip), vehicle: Klucel (hydroxypropylcellulose) (HPC) 102 % of control

O=C(O)c1cc2c3c(c1)CCCN3CCC2
inactive: dose: 50.0 mg/kg/injection, schedule: Q04DX003 (ip), vehicle: saline with Tween-80 100 % of control | [12] 100 % of control | [13] 102 % of control | [14] 91 % of control

CCOC(=O)CCC(NC(=O)c1ccc(N(C)S(=O)(=O)c2ccc(C)cc2)c(F)c1)C(=O)OCC (centres undefined)
inactive: [18] 100 % of control | dose: 75.0 mg/kg/injection, schedule: Q04DX003 (ip), vehicle: saline 103 % of control | dose: 150.0 mg/kg/injection, schedule: Q01DX001 (ip), vehicle: saline 98 % of control | dose: 150.0 mg/kg/injection, schedule: Q04DX003 (ip), vehicle: saline 95 % of control | dose: 300.0 mg/kg/injection, schedule: Q01DX001 (ip), vehicle: saline 96 % of control | dose: 300.0 mg/kg/injection, schedule: Q04DX003 (ip), vehicle: saline 103 % of control

Cc1ccc(S(=O)(=O)Nc2ccccc2C(=O)c2ccc(C)c(C)c2)cc1
inactive: [6] 100 % of control
